# EP1463487B1, “LIPOSOMAL DELIVERY OF VITAMIN E BASED COMPOUNDS” (RESEARCH DEVELOPMENT FOUNDATION, priority 2001, dated 2003)
# Entries after “also recorded” stand apart in the source; their conditions may differ.
# Legend:
# 66 cl.4-GFP cells [1] = assay: Fluorescent lymph node micrometastases of 66 cl.4-GFP tumors in Balb/c mice; assay type: in vivo
# Excerpt: (§1) Metastastic lesions in the five lung lobes were counted visually at time of sacrifice. Fluorescent green micro-metastatic cancer cell colonies in the left lung lobe and lymph nodes were counted using a Nikon fluorescence microscope (TE-200) with a 20 x objective (200 x magnification) and Image-Pro Plus (version 4.1; Media Cybernetics, Silver Spring, MD) software associated with the microscope. Fluorescent lesions were separated into three size grouping: <5 µm , 5-10 µm and >10 µm.
# (§2) At sacrifice, the left lung lobe of each mouse of flash frozen and saves for detection of GFP expressing micrometatstic lesions via fluorescent microscopy.
# [2] = tested on: Poly (ADP-Ribose) Polymerase (PARP); assay: Western immunoblot detection of PARP cleavage fragment; assay type: cell-based, mouse; conditions: 48 hours
# Experimental: Poly (ADP-Ribose) Polymerase cleavage was analyzed as an alternate method for detecting apoptosis. 66 cl.4-GFP cells were treated as described above for the DAPI assay. Following the PBS wash, cells were suspended in lysis buffer (1X PBS, 1% Nonidet P-40, 0.5% sodium deoxycholate, 0.1% sodium dodecyl sulfate (SDS), 1 µg/ml leupeptin, 1 µg/ml aprotinin, 1mM dithiothreitol (DTT), 2 mM sodium orthovanadate, 10 µg/ml phenylmethylsulfonyl fluoride (PMSF)) for 30 min at 4°C, vortexed, and supernatants collected by centrifugation at 15,000 X g for 20 min. Protein concentrations were determined using the Bio-Rad (Bradford) protein assay (Bio-Rad Laboratories, Hercules, CA), and samples (100 µg/lane) resolved on 7.5% SDS-polyacrylamide gels electrophoresed under reducing conditions.
# Proteins were electroblotted onto a nitrocellulose membrane (0.2 µM pore Optitran BA-S-supported nitrocellulose; Schleicher and Schuell, Keene, NH). After transfer, membranes were blocked with blocking buffer [25 mM Tris-HCl (pH 8.0), 125 mM NaCl, 0.5% Tween-20, and 5% non-fat dry milk] for 45 min at room temperature. Immunoblotting was performed using 1 µg of primary rabbit anti-human Poly (ADP-Ribose) Polymerase antibody [PARP (H-250), Santa Cruz Biotechnology, Santa Cruz, CA], and horseradish peroxidase-conjugated goat anti-rabbit immunoglobulin was used as the secondary antibody (Jackson Immunoresearch Laboratory, West Grove, PA) at a 1:3,000 dilution. Horseradish peroxidase-labeled bands from washed blots were detected by enhanced chemiluminescence (Pierce, Rockford, IL) and autoradiography (Kodak BioMax film; Rochester, NY).
# [3] = Serum and tissue levels of α-TEA after liposomal aerosol treatment (HPLC); assay type: in vivo, balb/c mice; conditions: aerosol 5 mg/mouse over 30 minutes
# Experimental: Tumors were removed during necropsy and half of each tumor was quick frozen in liquid nitrogen then stored at -70°C until HPLC analyses were performed. Tumors were processed for HPLC analyses by homogenization and hexane extraction of lipids. Briefly, weighed tumors were placed in 5 ml disposable conical-bottom tubes (Sarstedt, Newton, NC) along with 5-7 Kimble solid glass beads (4mm), 1 ml 1% SDS in water, 1-2 ml 100% ethanol and 1 ml hexane. Samples were then mixed using a Crescent Wig-L-Bug (model 3110B Densply International, Elgin, IL) twice for 1 min each. Samples were then centrifuged for 5 min at 1,000 rpm, and the organic layer collected, the aqueous layer was mixed with hexane again, vortexed, centrifuged, and processed twice more before the organic layer was dried down under nitrogen. Samples were run immediately. Reverse phase HPLC analyses with fluorometric detection of the tocopherol ether analog were conducted as described by Tirmenstein, M.A., et al. (23).
# Eight mice are treated via pulmonary aerosol delivery with 40mg of α-TEA (5 mg/mouse) in 6 ml liposomes. The mice inhaled the aerosol over a period of 30 minutes until delivery was complete. Mice are sacrificed 0, 2, 6, or 24 hours after the treatment ended. Serum and tissue levels of α-TEA are determined by HPLC analyses (Fig. 7).
# [4] = Body weight and long term safety of α-TEA treated mice; assay type: in vivo, Balb/c mice
# Experimental: (§3) 50 mice were assigned (10 per group) to aerosol treatment, aerosol control, oral treatment, oral control, or to the no treatment group so that the average tumor volume for all groups were closely matched. […] Tumors were measured using calipers every other day, and volumes were calculated using the formula: volume (mm^3) = [width (mm)^2 X length (mm)] /2. Body weights were determined weekly.
# Balb/c mice, 10/group (4 groups, 40 mice total) are inoculated with 200,000 66 cl.4 GFP cells as described on day 0. Nine days after tumor inoculation, treatments groups are initiated: Aerosol Treatment (TX) = aerosol delivery of α-TEA liposome (5 mg/mouse)/daily through day 23. Aerosol Control = Aerosol delivery of liposome composition only daily through day 23. Gavage treatment = gavage administration of α-TEA at 5 mg/mouse in ethanol/peanut oil daily through day 23. Gavage control = gavage administration of ethanol/peanut oil only through day 23. Mice were weighed at the initiation of treatment (day 9) and thereafter on days 13, 16, 20, and 23 (Fig. 6). Data are presented as the mean +/- standard deviation.
# 66 cl.4-GFP cells [5] = assay: Visible lung metastases of 66 cl.4-GFP tumors in Balb/c mice; assay type: in vivo; conditions: daily aerosol for 17 days; counted visually at sacrifice
# Excerpt: as §1
# [6] = tested on: A2780 cisplatin-sensitive cell line; assay: Apoptosis of A2780 ovarian cancer cells in culture; assay type: cell-based, human; conditions: treated in culture with α-TEA
# [7] = tested on: proliferation biomarker KI-67; assay: KI-67 immunohistochemistry of tumor sections (cell proliferation); assay type: in vivo, Balb/c mice; conditions: transplantable syngeneic mouse mammary cancer model, in comparison to controls
# 66 cl.4-GFP cells [8] = assay: Tumor growth of 66 cl.4-GFP mammary tumor cells implanted in Balb/c mice; conditions: for mean tumor volume reduced in comparison to aerosol control: liposomal α-TEA/aerosol daily
# Experimental: 66 cl.4-GFP cells were harvested by trypsinization, centrifuged, resuspended in McCoy's media, containing no supplements at a density of 2 X 10^5/100µl. Mice were injected in the inguinal area at a point equal distance between the 4th and 5th nipples on the right side using a 23 gauge needle.
# as §3
# Balb/c mice were injected with 200,000 66 cl.4 GFP cells subcutaneous in the mammary fat pad area between the 4th and 5th nipple on the right side of the body.
# Mice are injected with 200,000 66cl.4 GFP murine mammary tumor cells as described on day 0. Treatments are initiated on day 9 when tumors reached 1-3 mm in size. […] Data represent the mean +/- Standard Error (SE), N = 10 mice for control and treatment groups.
# Balb/c mice were injected s. c. with 2 X 10^5 66 cl.4-GFP cells in the inguinal area between the 4th and 5th nipple on the right side of the body. When tumors reached 2 x 2-4 x 4 mm (9 days after tumor injection), mice were placed into 5 groups ((Group 1: untreated control, Group 2: liposome/aerosol control, Group 3: liposomal α-TEA aerosol treatment, Group 4: peanut oil/gavage control, Group 5: α-TEA in peanut oil/gavage treatment) of 10 mice/group) such that the mean tumor volume of each group was closely matched. Daily treatments were initiated on day 9 after tumor injection.
# Balb/c mice were injected with 200,000 66 cl.4 GFP cells subcutaneous in the mammary fat pad area between the 4th and 5th nipple on the right side of the body. […] Animals were treated with α-TEA in liposome, vitamin E succinate in liposome, or control liposome alone via aerosol, 7 days per week, for 21 days. Animals were given 75 mg compound via nebulization per day such that each animal received 36 µg compound per day.
# The size of the tumors, 9 - 21 days after injection of 200,000 66 cl.4 GFP cells between the 4th and 5th nipple on the right side of each mouse, is determined. Treatments are initiated on day 9 after tumor inoculation. Each group consists of n=10 +/- SE. Gavage Treatment = Treatments of 5 mg of α-TEA in ethanol and peanut oil (0.1 ml volume) are administered daily starting on day 9 after tumor inoculation and continuing through day 21. Gavage Control = Mice received peanut oil and ethanol alone (0.ml volume)/daily, starting on day 9 after tumor inoculation and continuing through day 21. Data (tumor size) are depicted as the mean +/- standard error for days 9, 11, 13, 15, 17, 19, and 21.
# Balb/c mice were injected with 200,000 66 cl.4 GFP cells subcutaneous in the mammary fat pad area between the 4th and 5th nipple on the right side of the body. […] Animals were treated with α-TEA in liposome, vitamin E succinate in liposome, or control liposome alone via oral gavage, 2 times per day, 7 days per week, for 21 days. Animals were given a total of 6 mg compound per day.
# 66 cl.4-GFP cells [9] = assay: Fluorescent lung micrometastases of 66 cl.4-GFP tumors in Balb/c mice; assay type: in vivo; conditions: for Inhibition (%) Lung Metastases: Liposomal; for numbers of micrometastases (± S. E.): α-TEA EtOH/peanut oil by gavage 5 mg/day
# Excerpt: as §1, §2
# 66 cl.4-GFP tumors = assay: TUNEL assay for apoptosis in tumor sections in vivo; design: species or system Balb/c mice
# Excerpt: Deparaffinized sections (5 µm) of tumor tissue were used to assess apoptosis using reagents supplied in the ApopTag In Situ Apoptosis Detection kit (Intergen, Purchase, NY) according to the manufacturer's instructions. Nuclei that stained brown were scored as positive for apoptosis and those that stained blue were scored as negative. At least sixteen 400X microscopic fields were scored per tumor. Data are presented as the mean ± S. E number of apoptotic cells counted in three separate tumors from each group. Pictures of tumor tissue were taken at 1000X magnification.
# [10] = tested on: cp-70 human ovarian cancer cells; assay: Apoptosis of cp-70 ovarian cancer cells in culture; assay type: cell-based; conditions: treated in culture with α-TEA
# [11] = Aerosol, in nebulizer per mouse: α-TEA 5 mg/d, 9NC 2 µg/d, combination 5 mg+2µg/d
structure (smiles),measurement,setting,value
"Cc1c(C)c2c(c(C)c1OCC(=O)O)CC[C@@](C)(CCC[C@H](C)CCC[C@H](C)CCCC(C)C)O2 [α-TEA, 2,5,7,8-tetramethyl-(2R-(4R,8R,12-trimethyltridecyl)chroman-6-yloxy) acetic acid]",Inhibition (%) Metastases Lymphnode,66 cl.4-GFP cells [1]; [11],94%
same,Inhibition (%) Metastases Lymphnode,"66 cl.4-GFP cells [1]; Liposomal, Aerosol, 5 mg/d",94%
same,Inhibition (%) Metastases Lymphnode,"66 cl.4-GFP cells [1]; Liposomal, Gavage, 3 mg/2Xd",56%
same,average micrometastatic lesions in lymph nodes,"66 cl.4-GFP cells [1]; liposome via gavage, 6 mg compound per day, 21 days",3.1 ±0.8
same,84 kDa cleavage fragment of PARP,[2]; 5 µg/ml,only intact PARP protein was detected
same,84 kDa cleavage fragment of PARP,[2]; 10 µg/ml,evident
same,84 kDa cleavage fragment of PARP,[2]; 20 µg/ml,evident
same,serum and tissue levels of α-TEA,[3]; 0 hours after treatment ended,found only in the stomach tissue
same,serum and tissue levels of α-TEA,[3]; 2 hours after treatment ended,present in the serum and stomach
same,serum and tissue levels of α-TEA,[3]; 6 hours after treatment ended,present in the liver and stomach
same,serum and tissue levels of α-TEA,[3]; 24 hours after treatment ended,present in the liver and stomach
same,long term adverse effects,"[4]; non-tumor bearing mice treated by aerosol or gavage for 17 days, kept eleven months",did not show any adverse effects
same,body weight,"[4]; tumor bearing mice, α-TEA liposome aerosol or gavage in ethanol/peanut oil, 5 mg/mouse daily, versus controls",no significant weight differences; also recorded: No differences in mean body weights
same,No. Visible Lung Tumor Foci/Animal,66 cl.4-GFP cells [5],No visible tumors were seen
same,apoptosis,[6],undergo apoptosis
same,mean values of the proliferation biomarker KI-67 reduced,[7],56%
same,tumor size at the inoculation site versus gavage control,66 cl.4-GFP cells [8]; 5 mg/day/mouse α-TEA in ethanol and peanut oil by gavage,no significant differences in tumor weights; also recorded: did not differ
same,Inhibition (%) Tumor Growth,66 cl.4-GFP cells [8]; [11],65%
same,Inhibition (%) Tumor Growth,"66 cl.4-GFP cells [8]; EtOH/P Oil, Gavage, 5 mg/d",0%
same,Inhibition (%) Tumor Growth,"66 cl.4-GFP cells [8]; Liposomal, Aerosol, 5 mg/d",70%
same,Inhibition (%) Tumor Growth,"66 cl.4-GFP cells [8]; Liposomal, Gavage, 3 mg/2Xd",70%
same,size of tumors less than aerosol only control group,"66 cl.4-GFP cells [8]; aerosol α-TEA liposomes 5 mg/mouse daily, sacrifice day 25, 16 days after treatment initiation",61%
same,mean tumor volume reduced in comparison to aerosol control,66 cl.4-GFP cells [8]; day 9 of treatment,23%
same,mean tumor volume reduced in comparison to aerosol control,66 cl.4-GFP cells [8]; day 11 of treatment,41%
same,mean tumor volume reduced in comparison to aerosol control,66 cl.4-GFP cells [8]; day 13 of treatment,50%
same,mean tumor volume reduced in comparison to aerosol control,66 cl.4-GFP cells [8]; day 15 of treatment,67%
same,mean tumor volume reduced in comparison to aerosol control,66 cl.4-GFP cells [8]; day 17 of treatment,61%
same,reduced tumor growth,"66 cl.4-GFP cells [8]; liposome aerosol, 36 µg compound per day, 21 days, day 15",64%
same,reduced tumor growth,"66 cl.4-GFP cells [8]; liposome aerosol, 36 µg compound per day, 21 days, day 17",76%
same,reduced tumor growth,"66 cl.4-GFP cells [8]; liposome aerosol, 36 µg compound per day, 21 days, day 19",69%
same,reduced tumor growth,"66 cl.4-GFP cells [8]; liposome aerosol, 36 µg compound per day, 21 days, day 21",67%
same,reduced tumor growth,"66 cl.4-GFP cells [8]; liposome gavage, 6 mg compound per day, 2 times per day, day 15",85%
same,reduced tumor growth,"66 cl.4-GFP cells [8]; liposome gavage, 6 mg compound per day, 2 times per day, day 17",85%
same,reduced tumor growth,"66 cl.4-GFP cells [8]; liposome gavage, 6 mg compound per day, 2 times per day, day 19",80%
same,reduced tumor growth,"66 cl.4-GFP cells [8]; liposome gavage, 6 mg compound per day, 2 times per day, day 21",70%
same,Inhibition (%) Metastases Lung,66 cl.4-GFP cells [9]; [11],71%
same,Inhibition (%) Lung Metastases (number of lung tumor micrometastases reduced),"66 cl.4-GFP cells [9]; EtOH/P Oil, Gavage, 5 mg/d",62%
same,Inhibition (%) Lung Metastases,"66 cl.4-GFP cells [9]; Aerosol, 5 mg/d, in comparison to aerosol control",81%
same,Inhibition (%) Lung Metastases,"66 cl.4-GFP cells [9]; Gavage, 3 mg/2Xd",59%
same,micrometatstatic lung lesions,"66 cl.4-GFP cells [9]; liposomal formulation via gavage, 6 mg compound per day, 21 days, left lung lobe",21.5 /lung
same,mean number of micrometastases (± S. E.),"66 cl.4-GFP cells [9]; liposomal α-TEA/aerosol, left lung lobe, N= 8",11.4 ± 3.5
same,numbers of micrometastases (± S. E.),66 cl.4-GFP cells [9]; size 5-10 µm,11.3± 1.8
same,numbers of micrometastases (± S. E.),66 cl.4-GFP cells [9]; size < 5 µm,6.8±1.5
same,numbers of micrometastases (± S. E.),66 cl.4-GFP cells [9]; size >10 µm,3.1±1.2
same,apoptotic cells/field (mean ± S. E.),"66 cl.4-GFP tumors; liposomal α-TEA/aerosol treatment, three tumors",2.04±0.23 apoptotic cells/field
same,mean apoptotic values (TUNEL) increased,"66 cl.4-GFP tumors; transplantable syngeneic mouse mammary cancer model, in comparison to controls",30%
same,apoptosis,[10],undergo apoptosis
